Assays:
Experiment in all cases: relative viability (nuclei count vs DMSO), 5 days (fraction); higher = more cells survive
[1] = test system: NCI-H358
Method in brief: (§1)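 Lung cancer cell lines in 1536-well plates were dosed by pin tool the day after seeding, either with one drug alone or with a fixed anchor-drug dose plus five library-drug doses (not always all listed) in √10 steps. After 5 days, cells were fixed and their nuclei stained in one step (final 0.05% Triton X-100, 1% formaldehyde, 1 ug/ml Hoechst), then counted on 4× images. Relative viability is the nuclei count in treated wells divided by that in vehicle wells. Values are medians of duplicate plates.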

[2] = test system: NCI-H650
Method in brief: as §1

[3] = test system: NCI-H2342
Method in brief: as §1

[4] = test system: NCI-H596
Method in brief: as §1

[5] = test system: NCI-H23
Method in brief: as §1

[6] = test system: A-427
Method in brief: as §1

[7] = test system: COR-L23
Method in brief: as §1

[8] = test system: NCI-H1437
Method in brief: as §1

[9] = test system: 201T
Method in brief: as §1

[10] = test system: NCI-H1650
Method in brief: as §1

[11] = test system: SK-MES-1
Method in brief: as §1

[12] = test system: NCI-H1975
Method in brief: as §1

[13] = test system: HCC-827
Method in brief: as §1

[14] = test system: BEN
Method in brief: as §1

[15] = test system: NCI-H441
Method in brief: as §1

[16] = test system: SW 900
Method in brief: as §1

[17] = test system: EKVX
Method in brief: as §1

[18] = test system: HARA
Method in brief: as §1

[19] = test system: HCC-15
Method in brief: as §1

[20] = test system: NCI-H838
Method in brief: as §1

Question: Which relative viability ([1]; first compound 0.04 µM) does the source give for `Cc1sc2c(c1C)C(c1ccc(Cl)cc1)=N[C@@H](CC(=O)OC(C)(C)C)c1nnc(C)n1-2` [JQ1] + COc1cc2c(Oc3ccc(NC(=O)C4(C(=O)Nc5ccc(F)cc5)CC4)cc3F)ccnc2cc1OCCCN1CCOCC1 [Foretinib] (partner 0.25 µM) here?
Answer: The relative viability was 0.686.

Question: And the relative viability ([1]; first compound 0.1265 µM)?
Answer: Its relative viability is 0.83.

Question: What about the relative viability ([1]; first compound 0.4 µM) of the same molecule?
Answer: The relative viability was 0.685.

Question: And the relative viability ([1]; first compound 1.265 µM)?
Answer: The relative viability was 0.259.

Question: And the relative viability ([1]; first compound 4 µM)?
Answer: The relative viability was 0.309.

Question: What about the relative viability ([2]; first compound 0.04 µM) of the same molecule?
Answer: Its relative viability is 0.996.

Question: What about the relative viability ([2]; first compound 0.1265 µM) of the same molecule?
Answer: The relative viability was 0.717.

Question: What about the relative viability ([2]; first compound 0.4 µM) of the same molecule?
Answer: The relative viability was 0.687.

Question: And the relative viability ([2]; first compound 1.265 µM)?
Answer: The relative viability was 0.385.

Question: What about the relative viability ([2]; first compound 4 µM) of the same molecule?
Answer: The relative viability was 0.294.

Question: And the relative viability ([3]; first compound 0.04 µM)?
Answer: Its relative viability is 1.09.

Question: And the relative viability ([3]; first compound 0.1265 µM)?
Answer: Its relative viability is 0.843.

Question: And the relative viability ([3]; first compound 0.4 µM)?
Answer: Its relative viability is 1.08.

Question: What about the relative viability ([3]; first compound 1.265 µM) of the same molecule?
Answer: Its relative viability is 0.91.

Question: What about the relative viability ([3]; first compound 4 µM) of the same molecule?
Answer: Its relative viability is 0.824.

Question: What about the relative viability ([4]; first compound 0.04 µM) of the same molecule?
Answer: Its relative viability is 0.951.

Question: What about the relative viability ([4]; first compound 0.1265 µM) of the same molecule?
Answer: The relative viability was 0.61.

Question: What about the relative viability ([4]; first compound 0.4 µM) of the same molecule?
Answer: The relative viability was 0.466.

Question: What about the relative viability ([4]; first compound 1.265 µM) of the same molecule?
Answer: Its relative viability is 0.322.

Question: What about the relative viability ([4]; first compound 4 µM) of the same molecule?
Answer: The relative viability was 0.225.

Question: What about the relative viability ([5]; first compound 0.04 µM) of the same molecule?
Answer: The relative viability was 0.986.

Question: And the relative viability ([5]; first compound 0.1265 µM)?
Answer: The relative viability was 0.772.

Question: What about the relative viability ([5]; first compound 0.4 µM) of the same molecule?
Answer: Its relative viability is 0.546.

Question: And the relative viability ([5]; first compound 1.265 µM)?
Answer: The relative viability was 0.558.

Question: What about the relative viability ([5]; first compound 4 µM) of the same molecule?
Answer: The relative viability was 0.297.

Question: And the relative viability ([6]; first compound 0.04 µM)?
Answer: Its relative viability is 1.01.

Question: What about the relative viability ([6]; first compound 0.1265 µM) of the same molecule?
Answer: The relative viability was 0.988.

Question: And the relative viability ([6]; first compound 0.4 µM)?
Answer: Its relative viability is 0.913.

Question: And the relative viability ([6]; first compound 1.265 µM)?
Answer: The relative viability was 0.908.

Question: What about the relative viability ([6]; first compound 4 µM) of the same molecule?
Answer: Its relative viability is 0.636.

Question: And the relative viability ([7]; first compound 0.04 µM)?
Answer: Its relative viability is 0.98.

Question: And the relative viability ([7]; first compound 0.1265 µM)?
Answer: Its relative viability is 0.73.

Question: And the relative viability ([7]; first compound 0.4 µM)?
Answer: Its relative viability is 0.892.

Question: What about the relative viability ([7]; first compound 1.265 µM) of the same molecule?
Answer: Its relative viability is 0.663.

Question: What about the relative viability ([7]; first compound 4 µM) of the same molecule?
Answer: Its relative viability is 0.432.

Question: And the relative viability ([8]; first compound 0.04 µM)?
Answer: Its relative viability is 1.11.

Question: What about the relative viability ([8]; first compound 0.1265 µM) of the same molecule?
Answer: The relative viability was 1.23.

Question: And the relative viability ([8]; first compound 0.4 µM)?
Answer: The relative viability was 1.03.

Question: What about the relative viability ([8]; first compound 1.265 µM) of the same molecule?
Answer: Its relative viability is 0.464.

Question: And the relative viability ([8]; first compound 4 µM)?
Answer: Its relative viability is 0.384.

Question: What about the relative viability ([9]; first compound 0.04 µM) of the same molecule?
Answer: The relative viability was 1.02.

Question: And the relative viability ([9]; first compound 0.1265 µM)?
Answer: Its relative viability is 0.704.

Question: What about the relative viability ([9]; first compound 0.4 µM) of the same molecule?
Answer: Its relative viability is 0.514.

Question: What about the relative viability ([9]; first compound 1.265 µM) of the same molecule?
Answer: The relative viability was 0.343.

Question: What about the relative viability ([9]; first compound 4 µM) of the same molecule?
Answer: The relative viability was 0.215.

Question: What about the relative viability ([10]; first compound 0.04 µM) of the same molecule?
Answer: Its relative viability is 0.894.

Question: And the relative viability ([10]; first compound 0.1265 µM)?
Answer: Its relative viability is 0.656.

Question: And the relative viability ([10]; first compound 0.4 µM)?
Answer: Its relative viability is 0.568.

Question: And the relative viability ([10]; first compound 1.265 µM)?
Answer: Its relative viability is 0.26.

Question: What about the relative viability ([10]; first compound 4 µM) of the same molecule?
Answer: The relative viability was 0.161.

Question: And the relative viability ([11]; first compound 0.04 µM)?
Answer: The relative viability was 0.817.

Question: And the relative viability ([11]; first compound 0.1265 µM)?
Answer: The relative viability was 0.642.

Question: And the relative viability ([11]; first compound 0.4 µM)?
Answer: The relative viability was 0.675.

Question: And the relative viability ([11]; first compound 1.265 µM)?
Answer: Its relative viability is 0.359.

Question: What about the relative viability ([11]; first compound 4 µM) of the same molecule?
Answer: The relative viability was 0.333.

Question: What about the relative viability ([12]; first compound 0.04 µM) of the same molecule?
Answer: The relative viability was 0.916.

Question: What about the relative viability ([12]; first compound 0.1265 µM) of the same molecule?
Answer: Its relative viability is 0.731.

Question: And the relative viability ([12]; first compound 0.4 µM)?
Answer: Its relative viability is 0.713.

Question: What about the relative viability ([12]; first compound 1.265 µM) of the same molecule?
Answer: The relative viability was 0.541.

Question: And the relative viability ([12]; first compound 4 µM)?
Answer: Its relative viability is 0.353.

Question: What about the relative viability ([13]; first compound 0.04 µM) of the same molecule?
Answer: The relative viability was 1.1.

Question: And the relative viability ([13]; first compound 0.4 µM)?
Answer: The relative viability was 1.14.

Question: What about the relative viability ([13]; first compound 1.265 µM) of the same molecule?
Answer: Its relative viability is 1.22.

Question: And the relative viability ([13]; first compound 4 µM)?
Answer: The relative viability was 0.907.

Question: And the relative viability ([14]; first compound 0.04 µM)?
Answer: The relative viability was 0.482.

Question: What about the relative viability ([14]; first compound 0.1265 µM) of the same molecule?
Answer: Its relative viability is 0.529.

Question: And the relative viability ([14]; first compound 0.4 µM)?
Answer: The relative viability was 0.495.

Question: And the relative viability ([14]; first compound 1.265 µM)?
Answer: Its relative viability is 0.327.

Question: And the relative viability ([14]; first compound 4 µM)?
Answer: The relative viability was 0.262.

Question: And the relative viability ([15]; first compound 0.04 µM)?
Answer: Its relative viability is 1.08.

Question: What about the relative viability ([15]; first compound 0.1265 µM) of the same molecule?
Answer: Its relative viability is 0.981.

Question: What about the relative viability ([15]; first compound 0.4 µM) of the same molecule?
Answer: The relative viability was 0.842.

Question: What about the relative viability ([15]; first compound 1.265 µM) of the same molecule?
Answer: Its relative viability is 0.832.

Question: What about the relative viability ([15]; first compound 4 µM) of the same molecule?
Answer: Its relative viability is 0.57.

Question: What about the relative viability ([16]; first compound 0.04 µM) of the same molecule?
Answer: Its relative viability is 0.699.

Question: What about the relative viability ([16]; first compound 0.1265 µM) of the same molecule?
Answer: The relative viability was 1.06.

Question: And the relative viability ([16]; first compound 0.4 µM)?
Answer: Its relative viability is 0.377.

Question: And the relative viability ([16]; first compound 1.265 µM)?
Answer: Its relative viability is 0.224.

Question: And the relative viability ([16]; first compound 4 µM)?
Answer: Its relative viability is 0.188.

Question: What about the relative viability ([17]; first compound 0.04 µM) of the same molecule?
Answer: The relative viability was 0.881.

Question: What about the relative viability ([17]; first compound 0.1265 µM) of the same molecule?
Answer: Its relative viability is 0.448.

Question: And the relative viability ([17]; first compound 0.4 µM)?
Answer: Its relative viability is 0.787.

Question: What about the relative viability ([17]; first compound 1.265 µM) of the same molecule?
Answer: Its relative viability is 0.655.

Question: And the relative viability ([17]; first compound 4 µM)?
Answer: The relative viability was 0.512.

Question: And the relative viability ([18]; first compound 0.04 µM)?
Answer: Its relative viability is 0.89.

Question: And the relative viability ([18]; first compound 0.1265 µM)?
Answer: Its relative viability is 0.647.

Question: What about the relative viability ([18]; first compound 0.4 µM) of the same molecule?
Answer: The relative viability was 0.572.

Question: And the relative viability ([18]; first compound 1.265 µM)?
Answer: The relative viability was 0.343.

Question: And the relative viability ([18]; first compound 4 µM)?
Answer: The relative viability was 0.227.

Question: What about the relative viability ([19]; first compound 0.04 µM) of the same molecule?
Answer: The relative viability was 0.914.

Question: And the relative viability ([19]; first compound 0.4 µM)?
Answer: Its relative viability is 0.767.

Question: And the relative viability ([19]; first compound 1.265 µM)?
Answer: The relative viability was 0.66.

Question: And the relative viability ([19]; first compound 4 µM)?
Answer: Its relative viability is 0.589.

Question: And the relative viability ([20]; first compound 0.04 µM)?
Answer: Its relative viability is 1.08.

Question: What about the relative viability ([20]; first compound 0.1265 µM) of the same molecule?
Answer: Its relative viability is 0.703.

Question: What about the relative viability ([20]; first compound 0.4 µM) of the same molecule?
Answer: Its relative viability is 0.801.

Question: And the relative viability ([20]; first compound 1.265 µM)?
Answer: Its relative viability is 0.31.

Question: And the relative viability ([20]; first compound 4 µM)?
Answer: Its relative viability is 0.285.
